Key:
Format in all cases: physicochemical
[1] = Study 2 equilibration study: aerodynamic particle size distribution analysis (FPF and FPD) during 6 week equilibration
Procedure: (§1) Two batches of fluticasone/salmeterol housed within a Spiromax® device were prepared. […] Each batch was divided into two and equilibrated for six weeks under the conditions specified by each protocol. Protocol 1: 30° C./65% RH (unwrapped) Protocol 2: 40° C. […] Two batches of fluticasone/salmeterol housed within a Spiromax® device were prepared. Combination batches of fluticasone propionate and salmeterol xinafoate were selected at two different strengths, as in study 1. Each batch was divided into two and equilibrated for six weeks under the conditions specified by each protocol. Protocol 1: 30° C./65% RH (unwrapped) Protocol 3: 40° C.

[2] = Study 1 equilibration study: aerodynamic particle size distribution analysis (FPF and FPD) after 6 week equilibration
Procedure: as §1

[3] = Study 3 eight week in-use stability study: aerodynamic particle size distribution (FPF and FPD); conditions: eight week in-use at 30° C./65% RH (unwrapped) after equilibration by protocol 2
Procedure: (§2) Following inhaler equilibration according to protocol 2 (six weeks at 40° C./75% RH wrapped in foil with desiccant), eight-week stability tests of fluticasone propionate and salmeterol xinafoate (25 μg/25 μg and 100 μg/25 μg) were conducted. The in-use stability testing was conducted at 30° C./65% RH (unwrapped) as per discussion with the FDA. […] Following inhaler equilibration according to protocol 3 (six weeks at 40° C. wrapped in foil with desiccant), six-month stability tests of fluticasone propionate and salmeterol xinafoate (25 μg/25 μg and 100 μg/25 μg) were conducted. The stability of the formulations was assessed following storage under two different condition sets.

[4] = Study 4 six month stability study: aerodynamic particle size distribution (FPF and FPD)
Procedure: as §2

[5] = Study 2, batch 25/25 μg, 30° C./65% RH (unwrapped)
[6] = Study 2, batch 25/25 μg, 40° C. (wrapped in foil with desiccant)
[7] = Study 2, batch 100/25 μg, 30° C./65% RH (unwrapped)
[8] = Study 2, batch 100/25 μg, 40° C. (wrapped in foil with desiccant)
[9] = Study 1, batch 25/25 μg Fp/Sx in Spiromax, 30° C./65% RH (unwrapped)
[10] = Study 1, batch 25/25 μg, 40° C. (wrapped in foil with desiccant)
[11] = Study 1, batch 100/25 μg, 30° C./65% RH (unwrapped)
[12] = Study 1, batch 100/25 μg, 40° C. (wrapped in foil with desiccant)
[13] = Study 4, batch 25/25, six month storage at 25° C./60% RH (wrapped) after equilibration by protocol 3
[14] = Study 4, batch 25/25, six month storage at 40° C. (wrapped) after equilibration by protocol 3
[15] = Study 4, batch 100/25, six month storage at 25° C./60% RH (wrapped) after equilibration by protocol 3
[16] = Study 4, batch 100/25, six month storage at 40° C. (wrapped) after equilibration by protocol 3

Compound | Aerodynamic particle size distribution (% change from base) FPD [1, 5] | Aerodynamic particle size distribution (% change from base) FPF [1, 5] | Aerodynamic particle size distribution (% change from base) FPD [1, 6] | Aerodynamic particle size distribution (% change from base) FPF [1, 6] | Aerodynamic particle size distribution (% change from base) FPD [1, 7] | Aerodynamic particle size distribution (% change from base) FPF [1, 7] | Aerodynamic particle size distribution (% change from base) FPD [1, 8] | Aerodynamic particle size distribution (% change from base) FPF [1, 8] | Aerodynamic particle size distribution (% change from base) FPD [2, 9] | Aerodynamic particle size distribution (% change from base) FPF [2, 9] | Aerodynamic particle size distribution (% change from base) FPD [2, 10] | Aerodynamic particle size distribution (% change from base) FPF [2, 10] | Aerodynamic particle size distribution (% change from base) FPD [2, 11] | Aerodynamic particle size distribution (% change from base) FPF [2, 11] | Aerodynamic particle size distribution (% change from base) FPD [2, 12] | Aerodynamic particle size distribution (% change from base) FPF [2, 12] | Aerodynamic particle size distribution (% change from base) FPD ([3]; Study 3, batch 25/25 μg) | Aerodynamic particle size distribution (% change from base) FPF ([3]; Study 3, batch 25/25 μg) | Aerodynamic particle size distribution (% change from base) FPD ([3]; Study 3, batch 100/25 μg) | Aerodynamic particle size distribution (% change from base) FPF ([3]; Study 3, batch 100/25 μg) | also measured
CCC(=O)O[C@]1(C(=O)SCF)[C@H](C)C[C@H]2[C@@H]3C[C@H](F)C4=CC(=O)C=C[C@]4(C)[C@@]3(F)[C@@H](O)C[C@@]21C [Fp, fluticasone propionate] | −19% | −16% | −13% | −12% | −12% | −12% | −16% | −14% | −16% | −19% | −13% | −12% | −13% | −12% | −17% | −14% | −10% | −9% | 0% | 0% | Aerodynamic particle size distribution (% change from base) FPD [4, 13]: −4%; Aerodynamic particle size distribution (% change from base) FPF [4, 13]: 0%; Aerodynamic particle size distribution (% change from base) FPD [4, 14]: −9%; Aerodynamic particle size distribution (% change from base) FPF [4, 14]: −6%; Aerodynamic particle size distribution (% change from base) FPD [4, 15]: 0%; Aerodynamic particle size distribution (% change from base) FPF [4, 15]: 0%; Aerodynamic particle size distribution (% change from base) FPD [4, 16]: −8%; Aerodynamic particle size distribution (% change from base) FPF [4, 16]: −6%
OCc1cc(C(O)CNCCCCCCOCCCCc2ccccc2)ccc1O (centres unmarked) [Sx, salmeterol xinafoate] | −20% | −18% | −2% | −2% | −9% | −10% | 0% | 0% | −20% | −19% | −2% | −2% | −9% | −10% | 0% | 0% | −17% | −14% | −4% | −3% | Aerodynamic particle size distribution (% change from base) FPD [4, 13]: −5%; Aerodynamic particle size distribution (% change from base) FPF [4, 13]: 0%; Aerodynamic particle size distribution (% change from base) FPD [4, 14]: −9%; Aerodynamic particle size distribution (% change from base) FPF [4, 14]: −4%; Aerodynamic particle size distribution (% change from base) FPD [4, 15]: −3%; Aerodynamic particle size distribution (% change from base) FPF [4, 15]: −1%; Aerodynamic particle size distribution (% change from base) FPD [4, 16]: −13%; Aerodynamic particle size distribution (% change from base) FPF [4, 16]: −9%
